Source: patent publication US20230285516A1 (priority 2020, published 2023)

Tests used:
TNF-α [1] = test: TNF-α tissue expression in cartilage and synovium co-cultures (histochemistry); format: cell-based, human; settings: RA or OA co-cultures, 1% type I polymerized collagen, 7 days
Protocol: (§1) Cartilage and synovium co-cultures were performed from 9 patients with RA and 8 patients with OA who underwent hip or knee replacement (Table 1). Joint tissue was cultured with (a) RPMI (control), (b) 1% type I polymerized collagen, for 7 days. The supernatants and tissues of days 1 and 7 were […] collected. In the culture supernatants the concentration of IL-1β, IL-8, IL-10, IL-12, TNF-α and IFN-γ was quantified by ELISA and the results were normalized with total protein concentration. The expression of IL-1β and TNF-α was evaluated using histochemistry.
FIG. 2. Effect of type I polymerized collagen on TNF-α expression. (A) Cells immunoreactive to TNF-α in the synovial tissue of the co-cultures. (B) Immunoreactive TNF-α+ cells in cartilage from co-cultures. Rheumatoid arthritis (RA): left panel. Osteoarthritis (OA): right panel. Basal: tissue in basal conditions. […] Each culture was performed in triplicate for each condition, of which at least two sections of each of the tissues were analyzed. The results are expressed as the mean±standard error (SEM) of the percentage of immunoreactive cells in 9 co-cultures of patients with RA and 8 with OA. *p≤0.002.

IL-1β = IL-1β in co-culture supernatants (ELISA); format: cell-based, human; settings: RA or OA co-cultures, day 7 of culture
Protocol: as §1
(§2) FIG. 3. Effect of type I polymerized collagen on IL-1β expression in supernatants of cartilage and synovium co-cultures from patients with rheumatoid arthritis (RA) or osteoarthritis (OA). The data represent the mean±SD of 9 co-cultures of cartilage and synovial tissue from patients with RA and of 8 co-cultures of patients with OA. Each culture was performed in triplicate for each condition. The results were normalized with the total protein concentration of the supernatant, determined by the Folin-Lowry micromethod. AR: left panel. OA: panel on the right. Basal: tissue in basal conditions.

TNF-α [2] = test: TNF-α in co-culture supernatants (ELISA); format: cell-based, human; settings: RA or OA co-cultures, day 7 of culture
Protocol: as §1
as §2, with “4.” for “3.”, “TNF-α” for “IL-1β”, “synovial tissue” for “synovium”, “synovium” for “synovial tissue”, “Folin-Löwry” for “Folin-Lowry”, “conditions. […] No detectable levels of IL-12 and IFN-γ were determined in the cultures.” for “conditions.”

Th2 (CD4+/IL-4+) cells = test: FACS of spleen Th2 cells in CIA models; format: in vivo, mice; settings: early arthritis model, first sacrifice only
Protocol: (§3) Early Arthritis Model. Fifty mice with the same characteristics were immunized at the base of the tail with 100 μg of chicken type II collagen emulsified in complete Freund's adjuvant. The boost was applied on day 21 at the base of the tail with 100 μg of type II collagen emulsified with Freund's incomplete adjuvant. On the same boosting day, the treatments (a-d) were applied every week for six weeks. Three animals were euthanized in the sixth week and three in the thirteenth week. The spleen, lymph nodes, joint tissue, liver, lungs, kidneys and heart were obtained in order to assess the inflammatory infiltrate, the predominant cell populations and the expression of pro- and anti-inflammatory cytokines.
Established Arthritis Model. Arthritis was induced as in the previous model in 50 mice and the treatments were applied intramuscularly, after 2 weeks of the boost, every week for 6 weeks. Three animals were euthanized in the eighth week and three in the fifteenth week. The spleen, lymph nodes, joint tissue, liver, lungs, kidneys and heart were obtained in order to assess the inflammatory infiltrate, the predominant cell populations and the expression of pro- and anti-inflammatory cytokines. […]
FIG. 10. […] The intracellular production of IL-17A, IL-4, IFN-γ and Foxp3 by CD4+ T cells was detected by flow cytometry. The results are representative of 6 mice analyzed in each group. […]

[3] = system: dendritic (CD4−/CD11c+) cells; test: FACS of spleen CD11c+ dendritic cells in CIA models; format: in vivo, mice; settings: CIA model
Protocol: as §3
Established Arthritis Model. Arthritis was induced as in the previous model in 50 mice and the treatments were applied intramuscularly, after 2 weeks of the boost, every week for 6 weeks. Three animals were euthanized in the eighth week and three in the fifteenth week. The spleen, lymph nodes, joint tissue, liver, lungs, kidneys and heart were obtained in order to assess the inflammatory infiltrate, the predominant cell populations and the expression of pro- and anti-inflammatory cytokines.
Cytometric evaluation. […]
FIG. 12. […] The expression of CD11c was detected by flow cytometry. The results are representative of 6 mice analyzed in each group. […]

NF-κB = test: Ex vivo NF-κBp65 and IκBα expression in splenocytes, CIA models; parameters: species or system mice; settings: early and long-standing arthritis
Protocol: We infer that the mechanism of action of type I polymerized collagen could be given through the regulation of the transcription factor NF-κB and AP-1. In particular, NF-κB regulates the expression of pro-inflammatory enzymes, cytokines, chemokines, immunoreceptors, and cell adhesion molecules, as well as apoptosis. In the light of this knowledge, the expression of NF-κBp65 and its inhibitor IκBα in splenocytes were analyzed ex vivo (FIG. 12).
FIG. 12. Effect of type I polymerized collagen in the early (preventive) and long-standing (late or palliative) arthritis model on ex vivo NF-κB and IκB-α expression in splenocytes. (A) Spleen cells from early arthritis model mice at first sacrifice. (B) Splenocytes obtained immediately after the second sacrifice. (C) Spleen cells from long-standing arthritis model mice at first sacrifice. (D) Splenocytes obtained immediately after the second sacrifice. The intracellular levels of NF-κBp65 and IκBα cells were detected by flow cytometry. The results are representative of 6 mice analyzed in each group. The horizontal dotted line represents the average normal values obtained from mice (n=3) without CIA. Data represent mean±SEM. *p<0.05.

[4] = severe to semi-critical disease

For “collagen-polyvinylpyrrolidone [type I polymerized collagen]”, the “tissue expression of TNF-α vs. controls in synovial tissue” value (TNF-α [1]) was “decreased”, the “expression of IL-1β vs. the controls in the supernatants” value (IL-1β) was “decreased” and the “expression of TNF-α vs. the controls in the supernatants” value (TNF-α [2]) was “decreased”. For the same substance, the “number of circulating Th2 cells” value (Th2 (CD4+/IL-4+) cells) was “modified”, the “CD11c+ population (antigenic presentation)” value [3] was “decrease” and the “percentage of NF-kB+ complexes with its inhibitor IκBα+ in splenocytes” value (NF-κB) was “increased to a statistically significant level”. The “fever, alterations in heart rate, respiratory rate, headache and arthralgias” value (SARS-CoV2 (Covid-19); after 7 days) was “disappearance”, the adverse effects (SARS-CoV2 (Covid-19); [4]) was “No adverse effects were detected, except for pain at the application site” and the “persistence of pain at the application site” value (SARS-CoV2 (Covid-19); [4]) was 5 to 15 min.
